Tested on: HPAEC monolayer
Assay: XPerT permeability visualization on biotinylated gelatin coated coverslips (FITC-avidin, VE-cadherin staining)
Format: cell-based, human
Settings: thrombin 0.2 or 0.3 U/ml 15 min; forskolin 2 μM 30 min; 10× objective; FIG. 4A
Description: Human pulmonary artery endothelial cells (HPAEC) were obtained from Lonza (Allendale, N.J.) and cultured in cell growth medium (EGM-2, Lonza) containing 10% fetal bovine serum (FBS). Cell cultures were maintained at 37° C. in a humidified 5% CO2 incubator and used for experiments at passages 5-8. In experiments with agonist stimulation, 10% FBS growth medium was replaced with 2% FBS growth medium for 2 hours prior to experiment. Measurements of transendothelial electrical resistance across a confluent endothelial cell monolayer were performed using the electrical cell-substrate impedance sensing system ECIS-1600 (Applied Biophysics, Troy, N.Y.). Transient transfections with cMyc-tagged RhoA-V14 or Rho kinase-CAT (6-553) were performed using PolyJet transfection reagent (SignaGen, Rockville, Md.) according to the manufacturer's protocol. In brief, HPAEC were seeded on 35 mm diameter cell culture dishes with biotinylated gelatin-treated coverslips at a density of 5×10^5 cells per dish. After 24 hours cells were transfected with 1 μg of plasmid DNA per dish (ratio: 1 μg of DNA per 3 μl of PolyJet). Permeability visualization experiments were performed 24 hours after transfection.
Permeability visualization experiments were performed on 18×18 mm square Rinzle plastic coverslips. The coverslips, placed in 35 mm culture dishes, were coated with biotinylated gelatin as described above. […]

thrombin
FITC fluorescence at cell-cell junction areas, low magnification images: dramatic increase in FITC fluorescence in the intercellular gaps

Reference: patent US9588106B2, “Methods and compositions for measuring cell permeability” (The University of Chicago, priority 2012, dated 2017)
